Data: publication PMC9787943, “Calcium-Dependent Interplay of Lithium and Tricyclic Antidepressants, Amitriptyline and Desipramine, on N-methyl-D-aspartate Receptors” (International Journal of Molecular Sciences, 2022)
Like-named read-outs stand apart in the source and are kept apart here.

System: T1, native di- and triheteromeric NMDARs composed of GluN1, GluN2A, and GluN2B subunits
T1 construct: gene Grin1; native receptors in primary cultured cortical neurons (from fetal brains of 17-day pregnant rats, 10-14 days in culture); mixture of di- and triheteromers, heterotetramers with two GluN1 (known biology)
Test: whole-cell patch clamp of cultured neurons, NMDA-elicited currents
Format: cell-based, Rattus norvegicus
Details: Na+ solution without Li+, 100 μM NMDA + 30 μM glycine, -70 mV, pH 7.2-7.4, 22-25 °C, no BAPTA, mode: Ca2+-dependent desensitization (paper suggests indirect, via NCX) plus open-channel bloc
Excerpt: whole-cell patch clamp of cultured neurons, NMDA-elicited currents on native di- and triheteromeric NMDARs composed of GluN1, GluN2A, and GluN2B subunits

SMILES | IC50 (2 mM Ca2+, read-out: IC50 ATL) [µM] | IC50 (1 mM Ca2+, read-out: IC50 DES) [µM]
CN(C)CCC=C1c2ccccc2CCc2ccccc21 [Amitriptyline] | 5 ± 1 | –
CNCCCN1c2ccccc2CCc2ccccc21 [Desipramine] | – | 1.75 ± 0.17
